Assay results as given in patent publication US9351940B2, “Nanoparticles comprising esters of poly (methyl vinyl ether-co-maleic anhydride) and uses thereof” (priority 2011, dated 2016).
Converted amounts (≈) assume the structure as drawn.

Test: Water solubility of KTZ in aqueous suspension without polymer
Type: physicochemical
Conditions: kinetic from dmso stock, aqueous suspension after precipitation from alcoholic solution, no polymer
Description: The selection of the appropriate Ketoconazole:polymer ratio (w/w) which is needed to dissolve drug crystals and to obtain homogeneous nanoparticles free from drug crystals was firstly optimized. For that purpose, 200 mg of KTZ were resuspended in different volumes of both absolute ethanol (10, 15 and 20 mL) as control solution or in the same volumes of GANTREZ® ES 425 ethanolic solution (50 mg/mL). GANTREZ® ES nanoparticles were produced by the addition of the corresponding volume of bidistilled water (2:1 (v/v) water/polymer solution) to GANTREZ® ES alcoholic solutions containing KTZ. […] Finally, the aqueous suspensions of KTZ-loaded GANTREZ® ES nanoparticles and KTZ aqueous suspension without the polymer were collected for further characterization and drug content quantification.
The amount of encapsulated drug in the nanoparticles was assayed by UV spectrophotometry at 257 nm (Shimadzu 1203 UV-VIS). In order to quantify the amount of KTZ in the nanoparticles suspension or free KTZ suspension without the polymer GANTREZ® ES), all samples of fleshly prepared formulations were evaporated under reduced pressure to eliminate ethanol, and then 1 mL of triplicate samples were centrifuged at 20,000 rpm for 25 min. […]

## CC(=O)N1CCN(c2ccc(OCC3COC(Cn4ccnc4)(c4ccc(Cl)cc4Cl)O3)cc2)CC1 (stereo not shown) [KTZ, Ketoconazole]
  solubility: ~11 µg/mL (≈ 20.7 µM)
